Test results as given in patent US20240024273A1, “TOPICAL ADMINISTRATION OF 2-(DIETHYLAMINO)ETHYL 2-(4-ISOBUTYLPHENYL)PROPRIONATE FOR TREATMENT OF DISEASES” (TECHFIELDS PHARMA CO., LTD., priority 2020, published 2024).
Read-outs that look alike come from different tables or passages of the source.

Legend:
[1] = Phase 1 clinical study: plasma pharmacokinetics of prodrug and ibuprofen; type: in vivo, human; conditions: 70 mg; for AUC0-12 / Cmax: human, plasma; for AUC0-12: read-out: prodrug AUC0-12, geometric mean; for Cmax: read-out: prodrug Cmax, geometric mean
Method: Following a 5-day washout period, 2-(diethylamino)ethyl 2-(4-isobutylphenyl)propionate was administered b.i.d. during Days 6-11, and a morning dose only was administered to Day 12. Blood samples were collected for PK analysis over the 120-hour post-dose period following the Day 12 dose. Additionally, pre-dose blood samples were collected on Day 7 through Day 11 to evaluate steady-state status.
The same study procedures were followed as described in Part 1.
For single dose PK, serial blood samples were collected on Day 1 dose at the following time points: 0 (pre-dose), 0.25, 0.5, 0.75, 1, 1.5, 2, 2.5, 3, 4, 5, 6, 8, 10, 12, 18, 24, 48, 72, 96 and 120 hours post-dose.
For multiple-dose PK, serial blood samples were collected on Day 12 at the following time points: 0 (pre-dose), 0.25, 0.5, 0.75, 1, 1.5, 2, 2.5, 3, 4, 5, 6, 8, 10, 12, 18, 24, 48, 72, 96 and 120 hours post-dose.
The relative bioavailability of the single dose 70 mg topical application vs. 70 mg spray application was determined based on AUCtau, AUCinf and Cmax. The 90% confidence intervals (CIs) on the ratio of topical application vs. spray application were calculated.

[2] = system: Osteoarthritis; conditions: n=107; placebo −33.6; cited from earlier work
[3] = system: Osteoarthritis; conditions: cited from earlier work
[4] = system: osteoarthritis of the knee; conditions: cited from earlier work
[5] = topical or ocular, Day 1, 70 mg topical
[6] = topical or ocular, Day 12, 70 mg topical

SMILES: CCN(CC)CCOC(=O)C(C)c1ccc(CC(C)C)cc1.Cl (stereo not drawn) [2-(diethylamino)ethyl 2-(4-isobutylphenyl)propionate hydrochloride]
- prodrug AUC0-12 ratio Topical/Spray ([1]; Day 1): 3.28
- prodrug Cmax ratio Topical/Spray ([1]; Day 1): 1.34
- prodrug AUC0-12 ratio Topical/Spray ([1]; Day 12): 0.91
- prodrug Cmax ratio Topical/Spray ([1]; Day 12): 0.93
- AUC0-12 [1, 5]: 0.913 ng·h/mL
- Cmax [1, 5]: 0.138 ng/mL
- AUC0-12 [1, 6]: 0.953 ng·h/mL
- Cmax [1, 6]: 0.143 ng/mL
- AUC0-12 ([1]; topical, Day 1, 70 mg spray): 0.279 ng·h/mL
- Cmax ([1]; topical, Day 1, 70 mg spray): 0.102 ng/mL
- AUC0-12 ([1]; topical, Day 12, 70 mg spray): 1.05 ng·h/mL
- Cmax ([1]; topical, Day 12, 70 mg spray): 0.155 ng/mL

SMILES: COc1ccc2cc([C@H](C)C(=O)O)ccc2c1 [Naproxen]
- Patient's Assessment of Arthritis Pain (VAS 0-100 mm), change [2]: −37.5 mm
- difference from placebo, sign and symptoms of OA ([3]; 500 mg BID oral, Week 12): −5.8
- patients improved by 2 grades or more from baseline (physician's global assessment) ([3]; 500 mg BID): 33%
- Mean ± SEM WOMAC Osteoarthritis Index Composite Score Change from Baselines ([3]; 500 mg, BID, orally, 12 Weeks, scale 0 to 96): −11.9 ± 1.29
- average daily paracetamol use ([4]; naproxen group): 670 mg

SMILES: COc1ccc2cc([C@H](C)C(=O)OCCCCO[N+](=O)[O-])ccc2c1 [naproxcinod]
- decrease of paracetamol use vs placebo group ([4]; active groups): 19.2% to 24.9
